According to patent publication US6436984B1, “Melatonin derivatives and medicine containing same” (Centre National de la Recherche Scientifique (CNRS), priority 1998, dated 2002):

Tested on: P 815 line
Experiment: cell proliferation of the P 815 line (tritiated thymidine incorporation)
Assay type: cell-based
Conditions: P 815 cells, 7 hours incubation in RPMI medium with phenol red, tritiated thymidine added after 3 hours, radioactivity associated with the DNA
Method: The biological activity of the derivative of formula I was compared with dipropylenetriamine NONOate (A), melatonin (B) and a dipropylenetriamine NONOate and melatonin (1/2) mixture (C) on the cell preparation of the cell proliferation of the P 815 line.
The cells are incubated with the products in RPMI medium with phenol red for 7 hours. Tritiated thymidine is added after incubating for 3 hours.
The results are shown on the curve in the single appended FIGURE, where the concentration of product (μM) is carried on the abscissa and the radioactivity associated with the DNA (cpm) is carried on the ordinate.

## COc1ccc2c(c1)c(CCNC(C)=O)cn2N=O [compound of formula I, N1-nitrosomelatonin]
Mus musculus, P815
  IC50: 280 µM

## NCCCN(CCCN)/[N+]([O-])=N/O [dipropylenetriamine NONOate (A), dipropylenetriamine NONOate]
  IC50: 150 µM
